# Ends that are not written are not given here.
# Assays:
# PDL cells = assay: Cell differentiation of PDL cells (alkaline phosphatase activity, Bessey-Lowry method); format: cell-based, human; conditions: for ALP activity increasing effect on PDL cells relative to BMP2: at confluent state and one week after (FIG. 5, FIG. 6), comparison with BMP2
# Source text: PDL cells were isolated from a healthy premolar carefully extracted from a patient who visited a hospital to extract teeth for orthodontic treatment so that periodontal ligament should not be damaged as far as possible, and cultured. The extracted tooth was washed with sterilized physiological saline and phosphate-buffered saline (PBS, Nissui), and then periodontal ligament existing in ⅓ of the tooth root at the center was scraped off with a sharp knife. The pieces of periodontal ligament were transferred to a plastic plate and minced into small fragments using a round-blade knife. Tissue fragments were left standing in a plate having a diameter of 35 mm (FALCON) and cultured in Dulbecco's modified Eagle medium (DMEM, Nissui) containing antibiotics (100 U/ml of penicillin G, 100 μg/ml of streptomycin and 250 μg/ml of gentamicin) and 10% fetal bovine serum (FBS, EQUITECH-BIO) at 37° C. under 5% CO2. Then, cells released from the periodontal ligament tissue fragments were subcultured under the same conditions, and the 3rd to 5th generation cells were used for experiments. • (ii) Mouse-derived Osteoblasts
# (§1) As an index of cell differentiation, alkaline phosphatase (ALP) activity of cells was determined. Cells were inoculated in a 24-well culture plate at a ratio of 5×10^3 cells/well, added with the peptide (a) at various concentrations and cultured in DMEM or αMEM containing 2% FBS. One week after the time point when the cells reached a confluent state, ALP activity was determined by the following enzymochemical method (Bessey-Lowry method, Bessey O A, Lowry O H and Brock M J, A method for the rapid determination of alkaline phosphatase with five cubic millimeter of serum, J. Biol. Chem., 164:321-329, 1946).
# (§2) The cultured cells were washed with PBS and then disrupted in 10 mM Tris-HCl buffer (pH 7.4, 500 μl) for 40 seconds by using an ultrasonic homogenizer (Handy Sonic model UR-20P, Tomy Seiko) and stirred. Then, 25 μl of this sample liquid was added to 125 μl of ALP buffer (0.1 M carbonate buffer, pH 9.8, 6.7 mM p-nitrophenyl phosphate, 2 mM MgCl2) and incubated at 37° C. for 30 minutes. The reaction was terminated by addition of 125 μl of 0.2 N NaOH, and absorbance was measured at 405 nm by using a microplate reader (Model 550, Bio-Rad Laboratories).
# Further, the ALP activity in DMEM containing 2% FBS and DMEM or αMEM containing 2% FBS added with peptide (c) at various concentrations was also similarly examined. The symbol “cont” in FIG. 4 indicates the results for the cells cultured in DMEM containing 2% FBS alone, “PN” indicates the results for the cells cultured in the medium added only with the peptide (a), and “PC” indicates the results for the cells cultured in the medium added only with the peptide (c). In FIG. 4, “pg” and “ng” represent “pg/ml” and “ng/ml,” respectively.
# Further, in addition to the peptide (a) (derived from swine), the human-derived peptide (b) and BMP were similarly examined. The results of ALP activity measurement performed when the cells reached a confluent state are shown in FIG. 5, and the results of ALP activity measurement performed one week after the confluent state was attained are shown in FIG. 6. The symbol “cont” in the figures indicates the results for the cells cultured in DMEM containing 2% FBS alone, “B” indicates the results for the cells cultured in the medium added only with BMP2, “PN” indicates the results for the cells cultured in the medium added only with the peptide (a), and “HN” indicates the results for the cells cultured in the medium added only with the peptide (b) In the figures, the unit of numerical values shown after “B,” “PN” and “HN” is “ng/ml.”
# MC3T3 cells [1] = assay: Cell growth of MC3T3 cells (cell number); format: cell-based, mouse; conditions: αMEM containing 2% FBS; on Day 6; versus control (FIG. 3)
# Description: (§3) As mouse-derived osteoblasts, cells of the MC3T3 cell strain or ST2 cell strain (purchased from Riken Cell Bank) were used. • (iii) Rat Femur Bone Marrow-derived Mesenchymal Stem Cells (BMMSC)
# The PDL cells prepared in (1) were inoculated on a 24-well culture plate (FALCON) at a ratio of 5×10^3 cells/well. After the inoculation, the cells were cultured in DMEM containing 10% FBS for 1 day. On Day 0, next day of the inoculation, the peptide (a) prepared above was added to a culture medium (DMEM containing 2% FBS) at various concentrations. On Days 4 and 6, the cells were separated and dispersed by using PBS containing 0.08% trypsin and 0.04% ethylenediaminetetraacetic acid (EDTA), and cell number was counted by using a Coulter counter (COULTER Z1, Coulter Electronics).
# Further, the peptides (a) and (b) were similarly examined for cell growth promoting effect on the MC3T3 cells. […] The symbol “cont” in FIG. 3 indicates the results for the cells cultured in αMEM containing 2% FBS alone, “B” indicates the results for the cells cultured in the medium added only with BMP2 (bone morphogenetic protein 2, Yamanouchi Pharmaceutical Co., Ltd.), “HN” indicates the results for the cells cultured in the medium added only with the peptide (b), and “PN” indicates the results for the cells cultured in the medium added with only the peptide (a). […]
# MC3T3 cells [2] = assay: Cell differentiation of MC3T3 cells (ALP activity); format: cell-based, mouse; conditions: for cell differentiation promoting effect (ALP activity) on MC3T3 cells: at confluent state and one week after (FIG. 9, FIG. 10)
# Description: as §3, §1, §2
# Further, the peptides (a) and (b) were similarly examined by using the MC3T3 cells. ALP activity determined when the cells reached a confluent state is shown in FIG. 9, and ALP activity determined one week after the confluent state was attained is shown in FIG. 10. The symbol “cont” in the figures indicates the results for the cells cultured in αMEM containing 2% FBS alone, “PN” indicates the results for the cells cultured in the medium added only with the peptide (a), and “HN” indicates the results for the cells cultured in the medium added only with the peptide (b). Further, “ng” in the figures represents “ng/ml.” […]
# [3] = measured at confluent state and one week after (FIG. 5, FIG. 6), versus control
Sequence,ALP activity increasing effect on PDL cells relative to BMP2 (PDL cells),ALP activity of the PDL cells (PDL cells; [3]),"ALP activity of the PDL cells (PDL cells; peptide at various concentrations, 2% FBS medium, one week after confluent state, versus control (FIG. 4))",MC3T3 cell number (cell growth promoting effect) (MC3T3 cells [1]),cell differentiation promoting effect (ALP activity) on MC3T3 cells (MC3T3 cells [2]),"cell differentiation promoting effect (ALP activity) on the MC3T3 cell strain (MC3T3 cells [2]; final concentration of 100 ng/ml, versus control (FIG. 12))"
VPAFPRQPGTPGVASL [Peptide (a)],comparable to or higher than that of BMP2,significantly increased,significantly increased,significantly increased,significant cell differentiation promoting effect,
"VPFFPQQSGTPGMASL [Peptide (b), peptide designed on the portion of human-derived sheathlin protein corresponding to (a)]",comparable to or higher than that of BMP2,significantly increased,,significantly increased,significant cell differentiation promoting effect,high cell differentiation promoting effect

# Reference: patent US7678884B2, “Biologically active peptide and agent containing the same” (Seikagaku Corporation, priority 2003, dated 2010)
